For test [1], the species on record is Oryctolagus cuniculus. Put plainly: Inhibition of rabbit platelet rich plasma aggregation induced by 500 uM of arachidonic acid. Format: functional.
The species entered for test [2] is Rattus norvegicus. Put plainly: Inhibitory activity against rat thoracic aorta contraction induced by 30 nM U-46619. It is filed as functional.
The species entered for test [3] is Rattus norvegicus. Put plainly: Inhibition of rat washed platelet aggregation induced by 4 ug/mL of collagen. Format: functional.
The species entered for test [4] is Homo sapiens. Put plainly: Effect on the synthesis of Thromboxane A2. It is filed as functional, organism-based.
Test [5] is filed under the species Homo sapiens. Put plainly: Effect on the synthesis of metabolites of arachidonic acid in human platelets. Format: functional.
The species named for test [6] is Homo sapiens. Put plainly: The synthesis of cyclooxygenase or lipoxygenase derived products (HHT and HETE) in human washed platelets. It is filed as functional.
Test [7] addresses T1, Thromboxane-A synthase (Homo sapiens) (UniProt P24557).
T1 sequence (whole entry): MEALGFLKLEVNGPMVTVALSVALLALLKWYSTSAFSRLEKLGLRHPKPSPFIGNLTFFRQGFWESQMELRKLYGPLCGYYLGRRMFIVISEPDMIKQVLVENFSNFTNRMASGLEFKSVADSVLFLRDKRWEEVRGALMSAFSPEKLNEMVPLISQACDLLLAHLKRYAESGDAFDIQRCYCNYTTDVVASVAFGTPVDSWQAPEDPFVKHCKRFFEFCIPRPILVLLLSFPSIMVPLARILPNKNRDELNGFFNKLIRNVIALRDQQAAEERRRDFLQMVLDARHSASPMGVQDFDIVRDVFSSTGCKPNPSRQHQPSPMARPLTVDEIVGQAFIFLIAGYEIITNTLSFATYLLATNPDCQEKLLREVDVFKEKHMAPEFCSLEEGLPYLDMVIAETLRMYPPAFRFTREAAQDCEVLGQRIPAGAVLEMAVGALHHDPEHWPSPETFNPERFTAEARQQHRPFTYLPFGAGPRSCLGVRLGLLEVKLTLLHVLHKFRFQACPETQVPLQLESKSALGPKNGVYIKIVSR
Put plainly: Inhibition of thromboxane A2 synthetase from human platelets by 10 uM expressed as percent of radioactivity recovered.

The species named for test [8] is Homo sapiens. Put plainly: Effect on the synthesis of metabolites of arachidonic acid in human platelets at a dose of 1 uM. It is filed as functional.
For test [9], the species on record is Homo sapiens. Put plainly: Effect on cyclooxygenase or lipoxygenase derived products (HHT and HETE) in human washed platelets at a dose of 10 uM as percent of radioactivity recovered. Format: functional.
The species entered for test [10] is Homo sapiens. Put plainly: Effect on cyclooxygenase or lipoxygenase derived products(HHT and HETE) in human washed platelets at dose of 1 uM expressed as percent of radioactivity recovered. Format: functional.
The species named for test [11] is Homo sapiens. Put plainly: Effect on the synthesis of metabolites of arachidonic acid in human platelets at dose of 10 uM expressed as percent of radioactivity recovered. It is filed as functional.
The species named for test [12] is Homo sapiens. Put plainly: The synthesis of cyclooxygenase or lipoxygenase derived products (HHT and HETE) in human washed platelets at dose of 20 uM. Format: functional, organism-based.
Test [13] is filed under the species Homo sapiens. Put plainly: Effect on the synthesis of Thromboxane A2 at dose of 20 uM. It is filed as functional, organism-based.
The mark [14] stands for this setting: Rattus norvegicus, Thoracic aorta.

Regarding `O=C(O)CCC/C=C\C[C@H]1[C@@H]2CCC(C2)[C@@H]1NS(=O)(=O)CCc1ccccc1`, the concentration for half-maximal inhibition (IC50) – broadly, the concentration that gives 50% inhibition – turned out to be 8200 nM in test [1] (Oryctolagus cuniculus, Plasma); 3.4 nM in test [2] (setting [14]); 3.7 nM in test [3] (Rattus norvegicus).

For `CCc1ccc(S(=O)(=O)N[C@H]2C3CC[C@H](C3)[C@@H]2C/C=C\CCCC(=O)O)cc1`, the half-maximal inhibitory concentration (IC50) in [1] (Oryctolagus cuniculus, Plasma) is 4600 nM; in test [2] (setting [14]), 1.5 nM; in test [3] (Rattus norvegicus), 3.3 nM.

On to `O=C(O)CCC/C=C\C[C@H]1[C@@H]2CCC(C2)[C@@H]1NS(=O)(=O)c1ccccc1` (stereo in doubt; 14a) [listing 1 of 2 here], for which the IC50 is 1.4 nM in test [2] and 2.9 nM in [3].

As for `O=C(O)c1ccc(OCCn2ccnc2)cc1`, the Recovery worked out at 0.74% in test [4], 11.8% in test [5] and 19.3% in test [6].

Take `O=C(O)CCC/C=C\C[C@H]1[C@@H]2CCC(C2)[C@@H]1NS(=O)(=O)c1ccc(C(=O)O)cc1`: the concentration for half-maximal inhibition (IC50) is 800000 nM in [1] (Oryctolagus cuniculus, Plasma) and more than 1000 nM in test [3] (Rattus norvegicus).

On to `O=C(O)CCC/C=C\C[C@H]1[C@@H]2CCC(C2)[C@@H]1NS(=O)(=O)c1ccccc1` (stereo in doubt; 14a) [listing 2 of 2 here], for which the Recovery in test [7] came out at 2.1%; in [8], 14.3%; in test [9], 23.2%; in test [10], 24%; in test [11], 14.2%.

With `O=C(O)CCC/C=C\C[C@H]1[C@@H]2CCC(C2)[C@@H]1NS(=O)(=O)c1ccc(-c2ccccc2)cc1`, the IC50 in test [1] (Oryctolagus cuniculus, Plasma) was 200000 nM; in test [2] (setting [14]), 9.8 nM; in test [3] (Rattus norvegicus), 6 nM.

Regarding `O=C(O)CCC/C=C\C[C@H]1[C@@H]2CCC(C2)[C@@H]1NS(=O)(=O)c1cccc2ccccc12`, the half-maximal inhibitory concentration (IC50) in test [1] (Oryctolagus cuniculus, Plasma) was 1100 nM; in [2] (setting [14]), 2.7 nM; in test [3] (Rattus norvegicus), 2.7 nM.

On to `CN(C)c1ccc(S(=O)(=O)N[C@H]2C3CC[C@H](C3)[C@@H]2C/C=C\CCCC(=O)O)cc1`, for which the IC50 was determined as 7100 nM in [1] (Oryctolagus cuniculus, Plasma) and 52 nM in [3] (Rattus norvegicus).

In the case of `O=C(O)CCC/C=C\C[C@H]1[C@@H]2CCC(C2)[C@@H]1NS(=O)(=O)c1ccccc1` (single isomer, unassigned; (+)), the concentration for half-maximal inhibition (IC50) in test [1] came to 600 nM; in test [2], 0.49 nM; in test [3], 1.8 nM.

Consider `CCCCCc1ccc(S(=O)(=O)N[C@H]2C3CC[C@H](C3)[C@@H]2C/C=C\CCCC(=O)O)cc1`, for which the IC50 was 800000 nM in [1] (Oryctolagus cuniculus, Plasma) and 14.5 nM in [3] (Rattus norvegicus).

For `Cc1cccc(S(=O)(=O)N[C@H]2C3CC[C@H](C3)[C@@H]2C/C=C\CCCC(=O)O)c1`, the IC50 in test [1] (Oryctolagus cuniculus, Plasma) was 1700 nM; in test [2] (setting [14]), 3.2 nM; in test [3] (Rattus norvegicus), 5.6 nM.

For `COc1ccc(S(=O)(=O)N[C@H]2C3CC[C@H](C3)[C@@H]2C/C=C\CCCC(=O)O)cc1`, the half-maximal inhibitory concentration (IC50) in test [1] (Oryctolagus cuniculus, Plasma) is 1700 nM; in test [3] (Rattus norvegicus), 3.9 nM.

With `O=C(O)CCC/C=C\C[C@H]1[C@@H]2CCC(C2)[C@@H]1NS(=O)(=O)CCCc1ccccc1`, the half-maximal inhibitory concentration (IC50) amounted to 14000 nM in [1] (Oryctolagus cuniculus, Plasma); 10.9 nM in test [2] (setting [14]); 10.9 nM in [3] (Rattus norvegicus).

On to `CS(=O)(=O)N[C@H]1C2CC[C@H](C2)[C@@H]1C/C=C\CCCC(=O)O`, for which the IC50 worked out at 640000 nM in test [1] (Oryctolagus cuniculus, Plasma); 1580 nM in [2] (setting [14]); 370 nM in [3] (Rattus norvegicus).

Take `O=C(O)CCC/C=C\C[C@H]1[C@@H]2CCC(C2)[C@@H]1NS(=O)(=O)c1ccc([N+](=O)[O-])cc1`: the IC50 was 1400 nM in [1] (Oryctolagus cuniculus, Plasma) and 8.9 nM in test [3] (Rattus norvegicus).

Consider `Cc1ccccc1S(=O)(=O)N[C@H]1C2CC[C@H](C2)[C@@H]1C/C=C\CCCC(=O)O`, for which the IC50 in test [1] (Oryctolagus cuniculus, Plasma) came to 6200 nM; in [2] (setting [14]), 3.7 nM; in test [3] (Rattus norvegicus), 4.3 nM.

As for `CCCCCCS(=O)(=O)N[C@H]1C2CC[C@H](C2)[C@@H]1C/C=C\CCCC(=O)O`, the IC50 in test [1] (Oryctolagus cuniculus, Plasma) amounted to 13300 nM; in test [2] (setting [14]), 17.2 nM; in test [3] (Rattus norvegicus) it was 19 nM.

With `O=C(O)CCC/C=C\C[C@H]1[C@@H]2CCC(C2)[C@@H]1NC(=O)c1ccccc1`, the IC50 is more than 800000 nM in [1] (Oryctolagus cuniculus, Plasma); 3410 nM in test [2] (setting [14]); 450 nM in test [3] (Rattus norvegicus).

Regarding `O=C(O)CCC/C=C\C[C@H]1[C@@H]2CCC(C2)[C@@H]1NS(=O)(=O)Cc1ccccc1`, the IC50 stood at 113000 nM in test [1] (Oryctolagus cuniculus, Plasma); 111 nM in test [2] (setting [14]); 26 nM in [3] (Rattus norvegicus).

Regarding `O=C(O)CCC/C=C\C[C@H]1[C@@H]2CCC(C2)[C@@H]1NS(=O)(=O)c1ccc(F)cc1`, the IC50 in test [1] (Oryctolagus cuniculus, Plasma) came to 600 nM; in [3] (Rattus norvegicus), 2.9 nM.

Regarding `Cc1ccc(S(=O)(=O)N[C@H]2C3CC[C@H](C3)[C@@H]2C/C=C\CCCC(=O)O)cc1`, the IC50 in [1] (Oryctolagus cuniculus, Plasma) was 500 nM; in test [2] (setting [14]), 0.7 nM; in test [3] (Rattus norvegicus), 2.4 nM.

`O=C(O)CCC/C=C\C[C@H]1[C@@H]2CCC(C2)[C@@H]1NS(=O)(=O)c1ccc(Cl)cc1`: the IC50 in test [1] (Oryctolagus cuniculus, Plasma) turned out to be 300 nM; in test [3] (Rattus norvegicus), 2.9 nM.

As to `COc1ccc2c(c1)c(CC(=O)O)c(C)n2C(=O)c1ccc(Cl)cc1`, the Recovery in test [12] stood at 15%; in test [13], 0.34%; in test [5], 28.4%.

For `O=C(O)CCC/C=C\C[C@H]1[C@@H]2CCC(C2)[C@@H]1NS(=O)(=O)c1ccc(O)cc1`, the IC50 came out at 500 nM in test [1] (Oryctolagus cuniculus, Plasma) and 4 nM in [3] (Rattus norvegicus).

For `O=C(O)CCC/C=C\C[C@H]1[C@@H]2CCC(C2)[C@@H]1NS(=O)(=O)c1ccccc1` (single isomer, unassigned; (-)), the IC50 in test [1] came to 7400 nM; in [2], 15.3 nM; in [3] it was 13.4 nM.

For the compound `O=C(O)CCC/C=C\C[C@@H]1[C@H](CNNC(=O)Nc2ccccc2)[C@H]2CC[C@H]1O2`, the IC50 is 9000 nM in test [1] (Oryctolagus cuniculus, Plasma); 14.5 nM in [2] (setting [14]); 3 nM in test [3] (Rattus norvegicus).

Values taken from ChEMBL document CHEMBL1124211, “Synthesis and in vitro activity of various derivatives of a novel thromboxane receptor antagonist, (+/-)-(5Z)-7-[3-endo-[(phenylsulfonyl)amino]bicyclo[2.2.1] hept-2-exo-yl]heptenoic acid” (J Med Chem, 1988).
